Data: patent US11980595B2, “Preventive or therapeutic agent and pharmaceutical composition for inflammatory diseases or bone diseases” (National University Corporation Chiba University, priority 2018, dated 2024)

How the values were obtained:
Interleukin (IL)-6 = assay: Inflammatory cytokine IL-6 in plasma of DSS ulcerative colitis model mice (ELISA); type: in vivo; conditions: for IL-6 concentration in blood: 3% DSS mice, plasma day 15, compared to DSS+saline
Text: Furthermore, after the blood collection was completed, the mice in each group were euthanized by exsanguination under isoflurane anesthesia.
(§1) Interleukin (IL)-6 was quantified as the inflammatory cytokine. IL-6 was quantified by ELISA method using a commercially available kit.
Furthermore, after blood collection was completed, the mice in each group were euthanized by exsanguination under isoflurane anesthesia.
as §1

NMDA receptors = conditions: S-ketamine compared to R-ketamine; cited from earlier work
[1] = tested on: DSS-treated mice, the ulcerative colitis animal model; assay: Disease condition score in DSS ulcerative colitis model mice; conditions: for disease condition score: 3% DSS mice, scored day 7, 10, 12, 14
RANKL = assay: Plasma RANKL and OPG/RANKL ratio in social defeat stress mice (ELISA); conditions: for OPG/RANKL ratio / RANKL concentration in plasma: compared to saline; for restoring abnormally high expression of RANKL to a normal value: summary of Experimental Example 6, 10 mg/kg i.p. once; for therapeutic effect (restoring abnormally high expression of RANKL to a normal value): summary of Experimental Example 11, 10 mg/kg i.p. once
[2] = tested on: social defeat stress mice; assay: Femur bone density by X-ray CT in social defeat stress mice; type: in vivo; conditions: Experimental Example 11, 10 mg/kg i.p. once, D15, compared to saline
[3] = tested on: social defeat stress mice; assay: Behavioral rating (tail suspension, forced swimming, sucrose preference tests) in social defeat stress mice; conditions: Experimental Example 11, 10 mg/kg i.p. once on D12, tests D12-D14, compared to saline
[4] = tested on: DSS-treated mice, the ulcerative colitis animal model; assay: Colonic inflammation score in DSS ulcerative colitis model mice; type: in vivo; conditions: 3% DSS mice, 10 mg/kg i.p. once a day for 14 days, day 15
Method: The mice from each group that had been euthanized were resected from cecum to anus, and a length from directly below the cecum to the anus was measured. Subsequently, the lumen of the colon was washed with saline, and after washing, an incision was made in the longitudinal direction, and a colonic inflammation score was determined according to the following evaluation criteria.
The mice from each group that had been euthanized were resected from the cecum to the anus, and the length from directly below the cecum to the anus was measured.

ovariectomized mice = assay: Femur bone density by X-ray CT in ovariectomized mice (osteoporosis model); type: in vivo; conditions: Experimental Example 13, 10 mg/kg i.p. Monday and Thursday, 6 weeks after surgery, compared to saline
Text: The effect of R-ketamine was examined using ovariectomized mice as a model animal for osteoporosis.

sRANKL-administered mice = assay: Femur bone density by X-ray CT in sRANKL-administered mice (osteoporosis model); conditions: Experimental Example 12, sRANKL (1 mg/kg) mice, 10 mg/kg i.p. 30 minutes before sRANKL and 24 and 48 hours after
[5] = Experimental Example 4, 10 mg/kg i.p. once a day for 14 days
[6] = Experimental Example 2, 10 mg/kg i.p. once a day for 14 days
[7] = summary of Experimental Examples 1 to 4, intraperitoneal 10 mg/kg
[8] = Experimental Example 6, 10 mg/kg i.p. once, four days after
[9] = Experimental Example 6, 10 mg/kg i.p. once, plasma four days after
[10] = Experimental Example 11, 10 mg/kg i.p. once, plasma three days after (D15)

Structure (SMILES)	IL-6 concentration in blood (Interleukin (IL)-6; [5])	disease condition score [1, 6]	therapeutic effect in ulcerative colitis animal model [1, 7]	OPG/RANKL ratio (RANKL; [8])	RANKL concentration in plasma (RANKL; [9])	restoring abnormally high expression of RANKL to a normal value (RANKL)	cortical bone density [2]	total bone density [2]	RANKL concentration in plasma (RANKL; [10])	therapeutic effect (restoring abnormally high expression of RANKL to a normal value) (RANKL)	antidepressant effect (tail suspension test, forced swimming test, sucrose preference test) [3]	also measured
CN[C@]1(c2ccccc2Cl)CCCCC1=O [S-ketamine]	significant decrease of IL-6 concentration in blood	improvement tendency of the disease condition score was observed in the “DSS+S-ketamine” group, but it was not significant	exhibited a tendency for a therapeutic effect in the ulcerative colitis animal model, but the effect was weaker than that of R-ketamine	a significant change to the OPG/RANKL ratio was not observed	a significant change to RANKL concentration in plasma was not observed	such an effect was not observed						affinity for NMDA receptors (NMDA receptors): stronger affinity for NMDA receptors than R-ketamine
N[C@@]1(c2ccccc2Cl)CCC[C@@H](O)C1=O [2R,6R-HNK, 2R,6R-hydroxynorketamine]							no significant change	no significant change	a significant change to RANKL concentration in plasma was not observed	no therapeutic effect was observed	no antidepressant effect	OPG/RANKL ratio (RANKL; Experimental Example 11, 10 mg/kg i.p. once, three days after (D15), 10 mg/kg): a significant change to the OPG/RANKL ratio was not observed
Nc1ccc(O)c(C(=O)O)c1 [5-ASA, 5-aminosalicylic acid, reference compound]												IL-6 concentration in blood (Interleukin (IL)-6; Experimental Example 10, 50 mg/kg i.p. once a day for 14 days): a significant decrease of IL-6 concentration in blood was not observed; disease condition score ([1]; Experimental Example 8, 50 mg/kg i.p. once a day for 14 days, compared to DSS and saline): improvement tendency of the disease condition score was observed in the “DSS+5-ASA” group, but it was not significant; therapeutic effect in ulcerative colitis animal model ([1]; summary of Experimental Examples 7 to 10, intraperitoneal 50 mg/kg): extremely weak therapeutic effect
CN[C@@]1(c2ccccc2Cl)CCCCC1=O [R-ketamine]	significant decrease of IL-6 concentration in blood	significant improvement of the disease condition score	exhibited a therapeutic effect	significantly increased	significantly decreased	able to restore an abnormally high expression of RANKL to a normal value	significantly improved	significantly improved	significantly decreased	able to restore an abnormally high expression of RANKL to a normal value	significantly higher antidepressant effect	colonic inflammation score ([4]; Experimental Example 3, compared to DSS+S-ketamine group): significant improvement of the colonic inflammation score; colonic inflammation score ([4]; Experimental Example 9, compared to DSS+5-ASA (50 mg/kg) group): significant improvement of the colonic inflammation score; effect of reducing IL-6 in blood, R-ketamine compared to S-ketamine (Interleukin (IL)-6; [5]): higher than when administering S-ketamine; IL-6 concentration in blood (Interleukin (IL)-6; Experimental Example 10, 10 mg/kg i.p. once a day for 14 days): a significant decrease of IL-6 concentration in blood was observed; cancellous bone density (ovariectomized mice): tended to increase along with R-ketamine administration, but it was not statistically significant; cortical bone density (ovariectomized mice): significantly improved; plane bone density (ovariectomized mice): tended to increase along with R-ketamine administration, but it was not statistically significant; total bone density (ovariectomized mice): significantly improved; disease condition score ([1]; Experimental Example 8, 10 mg/kg i.p. once a day for 14 days, compared to DSS and saline): significant improvement of the disease condition score; therapeutic effect in ulcerative colitis animal model ([1]; summary of Experimental Examples 7 to 10, intraperitoneal 10 mg/kg): significant therapeutic effect; OPG/RANKL ratio (RANKL; Experimental Example 11, 10 mg/kg i.p. once, three days after (D15)): significantly increased; cancellous bone density (sRANKL-administered mice): significantly increased; cortical bone density (sRANKL-administered mice; compared to saline): significantly improved; total bone density (sRANKL-administered mice; compared to saline): significantly improved
